Earlier results as cited in US20050147663A1, “Method of treatment for improved bioavailability” (priority 2003, published 2005).

Tests used:
[1] = enhanced by food in some instances, reduced in others
[2] = standard breakfast; capsules
[3] = delayed release formulations, drug given 30 minutes after food

| Structure (SMILES) | bioavailability affected by the presence of food [1] | further results |
| --- | --- | --- |
| COc1ccc2[nH]c([S+]([O-])Cc3ncc(C)c(OC)c3C)nc2c1 (centres unmarked) [omeprazole] | – | reduction in Cmax (20 mg delayed release capsule, administered with applesauce): 25%; food effect (40 mg delayed release capsule, with applesauce): does not show a food effect |
| COc1ccc2[n-]c([S+]([O-])Cc3ncc(C)c(OC)c3C)nc2c1.COc1ccc2[n-]c([S+]([O-])Cc3ncc(C)c(OC)c3C)nc2c1.[Mg+2] (centres unmarked) [esomeprazole magnesium] | – | decrease of the drug AUC (delayed release capsules, administration after food intake): 43-53% |
| O=C1Nc2ccc(Cl)cc2[C@@](C#CC2CC2)(C(F)(F)F)O1 [efavirenz] | affected | – |
| C[C@H]1c2cccc(O)c2C(=O)C2=C(O)[C@]3(O)C(=O)C(C(N)=O)=C(O)[C@@H](N(C)C)[C@@H]3[C@@H](O)[C@@H]21 [doxycycline] | – | bioavailability as judged by AUC and Cmax [2]: reduced |
| CC(C)CN(C[C@@H](O)[C@H](Cc1ccccc1)NC(=O)O[C@H]1CCOC1)S(=O)(=O)c1ccc(N)cc1 [amprenavir] | affected | – |
| COc1ccnc(C[S+]([O-])c2nc3ccc(OC(F)F)cc3[nH]2)c1OC (centres unmarked) [pantoprazole sodium] | – | Tmax variability (delayed release product): highly variable; Tmax change when given with food (delayed release product, given with food): can increase significantly |
| Cc1c(OCC(F)(F)F)ccnc1C[S+]([O-])c1nc2ccccc2[nH]1 (centres unmarked) [lansoprazole] | – | AUC diminished [3]: 50-70%; Cmax diminished [3]: 50-70% |
| CC(C)(C)NC(=O)[C@@H]1CN(Cc2cccnc2)CCN1C[C@@H](O)C[C@@H](Cc1ccccc1)C(=O)N[C@H]1c2ccccc2C[C@H]1O [indinavir] | affected | – |

Second part, led by results:

| bioavailability affected by the presence of food [1] | Structure (SMILES) | further results |
| --- | --- | --- |
| affected | Cc1cn([C@H]2C[C@H](N=[N+]=[N-])[C@@H](CO)O2)c(=O)[nH]c1=O [zidovudine] | – |
| affected | Nc1ccn([C@@H]2CS[C@H](CO)O2)c(=O)n1 [lamivudine] | – |
| affected | CC(C)(C)NC(=O)[C@@H]1C[C@@H]2CCCC[C@@H]2CN1C[C@@H](O)[C@H](Cc1ccccc1)NC(=O)[C@H](CC(N)=O)NC(=O)c1ccc2ccccc2n1 [saquinavir] | – |
| affected | CC(C)c1nc(CN(C)C(=O)N[C@H](C(=O)N[C@@H](Cc2ccccc2)C[C@H](O)[C@H](Cc2ccccc2)NC(=O)OCc2cncs2)C(C)C)cs1 [ritonavir] | – |
| affected | Cc1c(O)cccc1C(=O)N[C@@H](CSc1ccccc1)[C@H](O)CN1C[C@H]2CCCC[C@H]2C[C@H]1C(=O)NC(C)(C)C [nelfinavir] | – |
| affected | Nc1ccn([C@H]2CC[C@@H](CO)O2)c(=O)n1 [zalcitabine] | – |
